# Measured values from patent US6620839B2, “1,3-disubstituted and 1,3,3-trisubstituted pyrrolidines as histamine-3 receptor ligands and their therapeutic applications” (Abbott Laboratories, priority 2000, dated 2003).
# Target: T1, histamine-3 receptor (Rattus norvegicus, UniProt Q9QYN8)
# T1 construct: from tissue; host or cells: male Sprague-Dawley rat brain cortex membranes
# Test: Histamine-3 receptor binding, (3H)-N-α-methylhistamine displacement in rat cortical membranes
# Conditions: male Sprague-Dawley rat brain cortical membranes; (3H)-N-α-methylhistamine ~0.6 nM; 30 minutes at 25° C.; Cheng-Prusoff
# Summary of the method: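 Male Sprague-Dawley rat cortical membranes incubated 30 min at 25 °C with compound dilutions and [3H]-N-α-methylhistamine. Nonspecific binding defined with 3 μM thioperamide. Filtration and scintillation counting used; Ki from Hill transformation and Cheng-Prusoff equation.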
# T1 sequence (Q9QYN8 whole entry): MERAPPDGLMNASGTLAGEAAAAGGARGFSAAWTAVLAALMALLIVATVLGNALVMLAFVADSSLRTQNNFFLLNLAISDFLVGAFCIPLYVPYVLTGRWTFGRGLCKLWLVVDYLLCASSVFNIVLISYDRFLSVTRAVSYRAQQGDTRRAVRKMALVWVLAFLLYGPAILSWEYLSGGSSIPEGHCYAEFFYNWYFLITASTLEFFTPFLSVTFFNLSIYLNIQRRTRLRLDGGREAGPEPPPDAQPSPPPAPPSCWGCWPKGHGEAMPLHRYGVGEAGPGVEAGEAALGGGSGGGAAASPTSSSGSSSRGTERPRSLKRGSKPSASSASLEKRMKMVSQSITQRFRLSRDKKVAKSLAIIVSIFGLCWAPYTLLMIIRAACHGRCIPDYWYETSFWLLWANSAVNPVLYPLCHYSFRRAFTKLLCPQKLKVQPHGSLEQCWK
row,Ki [nM],Molecule
1,4.6,"O=C(c1ccc(OCCCN2CC[C@@H](NS(=O)(=O)c3cccc4ccncc34)C2)cc1)C1CC1 [Example 95, N-((3R)-1-{3-[4-(cyclopropylcarbonyl)phenoxy]propyl}pyrrolidinyl)-8-isoquinolinesulfonamide]"
2,16,"N#Cc1ccc(-c2ccc(OCCCN3CC[C@@H](NS(=O)(=O)c4ccc(C#N)cc4)C3)cc2)cc1 [Example 33, 4-cyano-N-((3R)-1-{3-[(4′-cyano[1,1′-biphenyl]-4-yl)oxy]propyl}pyrrolidinyl)benzenesulfonamide]"
3,22,"CC(C)(C)c1ccc(S(=O)(=O)N[C@@H]2CCN(CCCOc3ccc(-c4ccc(C#N)cc4)cc3)C2)cc1 [Example 21, 4-tert-butyl-N-((3R)-1-{3-[(4′-cyano[1,1′-biphenyl]-4-yl)oxy]propyl}pyrrolidinyl)benzenesulfonamide]"
4,2.8,"O=C(c1ccc(OCCCN2CC[C@@H](NS(=O)(=O)c3ccccc3F)C2)cc1)C1CC1 [Example 68, N-((3R)-1-{3-[4-(cyclopropylcarbonyl)phenoxy]propyl}pyrrolidinyl)-2-fluorobenzenesulfonamide]"
5,11,CC(=O)N(C)[C@@H]1CCN(CCCOc2ccc(-c3ccc(C#N)cc3)cc2)C1 [Example 111]
6,168,"CCC(C)(C)OC(=O)N[C@@H]1CCN(CCCOc2ccc(-c3ccc(C#N)cc3)cc2)C1 [Example 134, tert-pentyl (3R)-1-{3-[(4′-cyano[1,1′-biphenyl]-4-yl)oxy]propyl}pyrrolidinylcarbamate]"
7,13,"CN(C)[C@@H]1CCN(CCCOc2c(F)cc(-c3ccc(C#N)cc3)cc2F)C1 [Example 172, 4′-{3-[(3R)-3-(dimethylamino)-1-pyrrolidinyl]propoxy}-3′,5′-difluoro-1,1′-biphenyl-4-carbonitrile]"
8,5.6,"CC(=O)c1ccc(OCCCN2CC[C@@H](NS(=O)(=O)c3ccc(F)cc3F)C2)cc1 [Example 74, N-{(3R)-1-[3-(4-acetylphenoxy)propyl]pyrrolidinyl}-2,4-difluorobenzenesulfonamide]"
9,20,CN(C(=O)c1ccco1)[C@@H]1CCN(CCCOc2ccc(-c3ccc(C#N)cc3)cc2)C1 [Example 122]
10,173,"N#Cc1cccc(S(=O)(=O)N[C@@H]2CCN(CCCOc3ccc(-c4ccccn4)cc3)C2)c1 [Example 104, 3-cyano-N-((3R)-1-{3-[4-(2-pyridinyl)phenoxy]propyl}pyrrolidinyl)benzenesulfonamide]"
11,1630,"CC(C)(C)OC(=O)N[C@H]1CCN(CCOc2ccc(-c3ccc(C#N)cc3)cc2)C1 [Example 100, tert-butyl (3S)-1-{2-[(4′-cyano[1,1′-biphenyl]-4-yl)oxy]ethyl}pyrrolidinylcarbamate]"
12,675,"CC(=O)c1ccc(OCCCN2CC[C@@H](N3C(=O)N[C@@H](C)C3=O)C2)cc1 [Example 9, (5S)-3-{(3R)-1-[3-(4-acetylphenoxy)propyl]pyrrolidinyl}-5-methyl-2,4-imidazolidinedione]"
13,55,"CC(=O)c1ccc(OCCCN2CC[C@@H](NC(=O)c3csc(-c4cccnc4)n3)C2)cc1 [Example 4, N-{(3R)-1-[3-(4-acetylphenoxy)propyl]pyrrolidinyl}-2-(3-pyridinyl)-1,3-thiazole-4-carboxamide]"
14,12,COc1ccc(S(=O)(=O)N[C@@H]2CCN(CCCOc3ccc(-c4ccc(C#N)cc4)cc3)C2)cc1 [Example 20]
15,215,N#Cc1ccc(-c2ccc(OCCCN3CC[C@@H](NC(=O)N4CCCC4)C3)cc2)cc1 [Example 136]
16,7.3,N#Cc1ccc(-c2ccc(OCCCN3CC[C@@H](NS(=O)(=O)c4ccccc4)C3)cc2)cc1 [Example 15]
17,6.8,"O=C(c1ccc(OCCCN2CC[C@@H](NS(=O)(=O)C=Cc3ccccc3)C2)cc1)C1CC1 [Example 88, N-((3R)-1-{3-[4-(cyclopropylcarbonyl)phenoxy]propyl}pyrrolidinyl)-2-phenylethenesulfonamide]"
18,26,"CN(C(=O)OC(C)(C)C)[C@@H]1CCN(CCCOc2ccc(-c3ccc(C#N)cc3)cc2)C1 [Example 109, tert-butyl (3R)-1-{3-[(4′-cyano[1,1′-biphenyl]-4-yl)oxy]propyl}pyrrolidinyl(methyl)carbamate]"
19,7.4,CN([C@@H]1CCN(CCCOc2ccc(-c3ccc(C#N)cc3)cc2)C1)S(=O)(=O)c1cccc(F)c1 [Example 125]
20,206,"CN(C)[C@@H]1CCN(CCCOc2ccc(-c3ccc(C#N)cc3)cc2I)C1 [Example 169, 4′-{3-[(3R)-3-(dimethylamino)-1-pyrrolidinyl]propoxy}-3 ′-iodo-1,1′-biphenyl-4-carbonitrile]"

row,Ki [nM],Molecule
1,4.2,"Cc1ccc(S(=O)(=O)N[C@@H]2CCN(CCCOc3ccc(C(=O)C4CC4)cc3)C2)cc1 [Example 61, N-((3R)-1-{3-[4-(cyclopropylcarbonyl)phenoxy]propyl}pyrrolidinyl)-4-methylbenzenesulfonamide]"
2,27,"COc1cc(-c2ccc(C#N)cc2)ccc1OCCCN1CC[C@@H](N(C)C)C1 [Example 173, 4′-{3-[(3R)-3-(dimethylamino)-1-pyrrolidinyl]propoxy}-3′-methoxy-1,1′-biphenyl-4-carbonitrile]"
3,2.9,CN(C)S(=O)(=O)N(C)[C@@H]1CCN(CCCOc2ccc(-c3ccc(C#N)cc3)cc2)C1 [Example 124]
4,71,"CC(C)S(=O)(=O)N[C@@H]1CCN(CCCOc2ccc(C(=O)C3CC3)cc2)C1 [Example 12, N-((3R)-1-{3-[4-(cyclopropylcarbonyl)phenoxy]propyl}pyrrolidinyl)-2-propanesulfonamide]"
5,7.7,CN(C(=O)c1ccc(F)cc1)[C@@H]1CCN(CCCOc2ccc(-c3ccc(C#N)cc3)cc2)C1 [Example 119]
6,3.9,"CC(=O)Nc1ccc(S(=O)(=O)N[C@@H]2CCN(CCCOc3ccc(-c4ccc(C#N)cc4)cc3)C2)cc1Cl [Example 53, N-(2-chloro-4-{[((3R)-1-{3-[(4′-cyano[1,1′-biphenyl]-4-yl)oxy]propyl}pyrrolidinyl)amino]sulfonyl}phenyl)acetamide]"
7,31,1-(4-{3-[(3R)-3-aminopyrrolidinyl]propoxy}phenyl)-1-propanone [Example 7]
8,112,"CC(C)c1ccc(S(=O)(=O)N[C@@H]2CCN(CCCOc3ccc(-c4ccccn4)cc3)C2)cc1 [Example 102, 4-isopropyl-N-((3R)-1-{3-[4-(2-pyridinyl)phenoxy]propyl}pyrrolidinyl)benzenesulfonamide]"
9,15,N#Cc1ccc(-c2ccc(OCCCN3CC[C@@H](NS(=O)(=O)c4ccc5ccncc5c4)C3)cc2)cc1 [Example 52]
10,10,"Cn1cnc(S(=O)(=O)N[C@@H]2CCN(CCCOc3ccc(C(=O)C4CC4)cc3)C2)c1 [Example 80, N-((3R)-1-{3-[4-(cyclopropylcarbonyl)phenoxy]propyl}pyrrolidinyl)-1-methyl-1H-imidazole-4-sulfonamide]"
11,4.9,"O=C(c1ccc(OCCCN2CC[C@@H](NS(=O)(=O)c3ccc(OC(F)(F)F)cc3)C2)cc1)C1CC1 [Example 94, N-((3R)-1-{3-[4-(cyclopropylcarbonyl)phenoxy]propyl}pyrrolidinyl)-4-(trifluoromethoxy)benzenesulfonamide]"
12,33,N#Cc1ccc(-c2ccc(OCCCN3CC[C@@H](NS(=O)(=O)c4ccc(C(F)(F)F)cc4)C3)cc2)cc1 [Example 23]
13,288,N#Cc1ccc(-c2ccc(OCCCN3CC[C@@H](NC(=O)c4ccc(F)cc4)C3)cc2)cc1 [Example 139]
14,11,"Cc1ccccc1S(=O)(=O)N[C@@H]1CCN(CCCOc2ccc(C(=O)C3CC3)cc2)C1 [Example 64, N-((3R)-1-{3-[4-(cyclopropylcarbonyl)phenoxy]propyl}pyrrolidinyl)-2-methylbenzenesulfonamide]"
15,1.8,"COc1ccc(S(=O)(=O)N[C@@H]2CCN(CCCOc3ccc(C(=O)C4CC4)cc3)C2)cc1OC [Example 86, N-((3R)-1-{3-[4-(cyclopropylcarbonyl)phenoxy]propyl}pyrrolidinyl)-3,4-dimethoxybenzenesulfonamide]"
16,21,CC(C)S(=O)(=O)N[C@@H]1CCN(CCCOc2ccc(-c3ccc(C#N)cc3)cc2)C1 [Example 144]
17,11,"N#Cc1ccccc1S(=O)(=O)N[C@@H]1CCN(CCCOc2ccc(C(=O)C3CC3)cc2)C1 [Example 90, 2-cyano-N-((3R)-1-{3-[4-(cyclopropylcarbonyl)phenoxy]propyl}pyrrolidinyl)benzenesulfonamide]"
18,30,Cc1ccccc1S(=O)(=O)N[C@@H]1CCN(CCCOc2ccc(-c3ccc(C#N)cc3)cc2)C1 [Example 25]
19,29,"N#Cc1ccc(-c2ccc(OCCCN3CC[C@@H](NS(=O)(=O)c4ccc(Cl)cc4)C3)cc2)cc1 [Example 18, 4-chloro-N-((3R)-1-{3-[(4′-cyano[1,1′-biphenyl]-4-yl)oxy]propyl}pyrrolidinyl)benzenesulfonamide]"
20,6.4,"O=C(c1ccc(OCCCN2CC[C@@H](NS(=O)(=O)c3cccc(C(F)(F)F)c3)C2)cc1)C1CC1 [Example 62, N-((3R)-1-{3-[4-(cyclopropylcarbonyl)phenoxy]propyl}pyrrolidinyl)-3-(trifluoromethyl)benzenesulfonamide]"

row,Molecule,Ki [nM]
1,"CC(=O)c1ccc(OCCCN2CC[C@@H](NS(=O)(=O)C(C)C)C2)cc1 [Example 6, N-{(3R)-1-[3-(4-acetylphenoxy)propyl]pyrrolidinyl}-2-propanesulfonamide]",95
2,"Cc1c(S(=O)(=O)N[C@@H]2CCN(CCCOc3ccc(-c4ccc(C#N)cc4)cc3)C2)sc2ccc(Cl)cc12 [Example 37, 5-chloro-N-((3R)-1-{3-[(4′-cyano[1,1′-biphenyl]-4-yl)oxy]propyl}pyrrolidinyl)-3-methyl-1-benzothiophene-2-sulfonamide]",349
3,"N#Cc1ccc(-c2ccc(OCCCN3CC[C@@H](NS(=O)(=O)c4ccccc4C#N)C3)cc2)cc1 [Example 46, 2-cyano-N-((3R)-1-{3-[(4′-cyano[1,1′-biphenyl]-4-yl)oxy]propyl}pyrrolidinyl)benzenesulfonamide]",103
